Assay results: patent US20140163075A1, “MODULATION OF THE UBIQUITIN-PROTEASOME SYSTEM (UPS)” (NETHERLAND CANCER INSTITUTE, priority 2011, published 2014)
“Also recorded” adds a separate entry of the source. Like-named read-outs stand apart in the source and are kept apart here. Residues, ends and D or L forms follow the SMILES beside them. *: point of attachment. Cbz = O=C(OCc1ccccc1)*

Tests used:
proteasome [1] = conditions: literature overview; cited from earlier work
[2] = tested on: 20S and/or 26S proteasome; assay: FACS-based proteasome activity assay with Me4BodipyFL-Ahx3Leu3VS activity probe in MelJuSo wild type cells; assay type: cell-based, human
Procedure: MelJuSo cells are washed, trypsinized and resuspended in medium containing FBS and antibiotics. After counting the concentration is adjusted to 200,000 cells per mL. Using the Wellmate microplate dispenser fitted with small bore nozzle tubing, 50 μL of cell suspension is transferred to each well of a black 384 wells plate (10,000 cells/well).
A brief spin down will prevent any liquid from being lost when the plate cover is removed. Using a Hamilton liquid handling workstation the compounds are diluted to appropriate concentrations. To “wash” the cells prior to exposure 30 μL of medium is removed from each well and is replaced with fresh medium. Then the compounds are added to the medium of the cells (final concentration 5 μM).
Using the Wellmate microplate dispenser fitted with small bore nozzle tubing, […] of probe suspension is transferred to each well resulting in a final probe concentration of 200 nM. Plates are left to incubate for two hours. Then the medium is removed and the cells are washed one time with PBS. The PBS is removed and 10 μL of trypsin is added to each well. The plates are left on a shaker for 2 minutes, placed in an incubator for 5 minutes and put on a shaker again for 2 minutes. 40 μL of PBS containing 2% FBS is added per well and the plates are put on the shaker for 2 minutes. Finally, 20 μL of PBS containing 4% formaldehyde is added and the plates are left to shake for at least 15 minutes. Plates are left on a shaker at 4° C. until they can be measured.
The FITS unit is installed on the FACS and everything is turned on. To remove air from the system and ascertain that everything works fine the system is primed twice. One by one the plates are brought down and measured. In between plates a “daily clean” cycle is performed to prevent the system from becoming clogged. After the last plate the system should be cleaned again.
Analysis is always performed per plate. Throughout the analysis the following parameters are considered: • Forward Scatter (FSC): size of the cell • Side Scatter (SSC): granularity of the cell • Number of events (#) • Probe signal (FL-1): proteasome activity • FL-2 and FL-3: signal in other channels
All DMSO samples are checked and aberrant wells (low # events, high SSC, no signal) are excluded. The average of the FL-1 from all remaining DMSO samples is used to calculate the “ratio vs. DMSO” and the FL-1 log 2 ratio of the experimental samples. This will result in DMSO samples having a FL-1 log 2 value around zero. Compounds are considered “activators” or “hits” if the FL-1 log 2 ratio is >1, and inhibitors if the FL-1 log 2 ratio is […].
(§1) Cells were washed once with phosphate buffered saline (PBS, 1 GIBCO tablet in 500 mL MilliQ). Fresh medium containing the compound at the indicated concentration was added. After the incubation time 200 nM of Me4BodipyFL-Ahx3Leu3VS activity probe was added to the cells and after two hours of incubation cells were harvested for subsequent analysis by FACS or post-lysis fluorescence detection.
Celts were washed once with PBS, trypsin was added and the plate was placed at 37° C. for 5 minutes to allow the cells to detach. When detached the cells were resuspended in PBS supplemented with 2% FBS. Cells were fixed with formaldehyde (final concentration 1% in PBS). All samples were measured using a FACSCalibur flow cytometer (BD Biosciences). […] The complete workflow used for the compound screens is described above in more detail.
The compound libraries mentioned above are screened using a FACS-based activity assay. The proteasome activity probe Me4BodipyFL-Ahx3Leu3VS activity probe is used to fluorescently label the proteasome. This probe binds irreversibly to the catalytic domains of the 20S CP. When proteasome activity is increased, increased probe binding results in an increase in fluorescent signal compared to untreated cells.

MelJuSo wild type cells = assay: Cell viability (resazurin) assay, MG132 induced cell death; conditions: 1 μM, 24 hours
p38α = p38α (Homo sapiens, UniProt Q16539); conditions: literature [80, 83]; cited from earlier work
proteasome [3] = conditions: literature overview; cited from earlier work; remark: listed apart in the source
[4] = tested on: proteasome subunits (β2- and β5-subunits); assay: SDS-PAGE in-gel fluorescence of probe-labelled proteasome subunits in MelJuSo (MEL-JUSO) cells; assay type: cell-based, human; conditions: for activation effect on the β2- and β5-subunits: MEL-JUSO cells, p38 inhibitor panel tested at 1 and 5 μM, effect at 5 μM, FIG. 14B
Procedure: as §1
Cells were washed once with PBS, trypsin (6 well plate: 500 μL, 12 well plate: 200 μL, 24 well plate: 100 μL) was added and the plate was placed at 37° C. for 5 minutes to allow the cells to detach. When fully detached the cells were resuspended in fresh culture medium. Medium with cells was collected and after a centrifugation step (1100 ref for 2 minutes) the cells (pellet) were resuspended in cold HR buffer (50 mM Tris pH=7.4, 5 mM MgCl2, 250 mM sucrose, 1 mM DTT and 2 mM ATP). Lysis of the cells is achieved by sonification (Bioruptor, high intensity for 5 minutes with an ON/OFF cycle of 30 seconds) at 4° C. After a centrifugation step (13.600 rpm for 10 minutes) to remove cell debris the protein concentration (absorbance at 280 nm) of the supernatant is measured with a NanoDrop spectrophotometer. Fresh HR buffer without any cells was used as a blank,
Equal amounts of protein (15-20 μg) were denatured by heating the samples for 10 minutes at 71° C. in loading buffer (450 μL 4× loading buffer (Invitrogen), 45 μL β-Mercaptoethanol and 105 μl, MilliQ, 2 parts sample to 1 part loading buffer). The samples were loaded onto a 12% SDS-PAGE gel using the NuPAGE system from Invitrogen. MOPS (3-(N-morpholino)propanesulfonic acid) was used as a running buffer. Gels run at 180 V for approximately 1.5-2.0 hours and were directly imaged using the ProXPRESS 2D Proteomic imaging system (Perkin Elmer). Resolution was set at 100 μm, excitation at 480/30 and emission at 530/30. To verify protein loading, gels were stained with Coomassie Brilliant Blue. Images were analyzed using Totallab analysis software (Nonlinear Dynamics, Newcastle upon Tyne, UK) to quantify the intensity of the bands detected.
Additionally, FACS and SDS-PAGE validation experiments were done in which cells were incubated for 16 hours with 0.1, 0.5, 1.0 or 5.0 μM compound.
The proteasomal subunits are then labeled using the fluorescent […] probe, which selectively binds only to active β-subunits of the proteasome. The fluorogenic-labeled proteasome subunits were visualized directly in-gel by fluorescence scanning.
To further investigate this, MelJuSo wild type cells were incubated with 5 μM Win 62,577 for one hour. Then the medium was changed for regular medium without the compound present. After one or two hours of “washout” cells were stained with the proteasome activity probe and analyzed with SDS-PAGE followed by fluorescent scanning of the gel. The results of this experiment are depicted in FIG. 17.

[5] = LOPAC and JHCCL library screen, 5 μM compound, 16 hours, 200 nM probe two hours

p38α, sequence (Q16539 whole entry): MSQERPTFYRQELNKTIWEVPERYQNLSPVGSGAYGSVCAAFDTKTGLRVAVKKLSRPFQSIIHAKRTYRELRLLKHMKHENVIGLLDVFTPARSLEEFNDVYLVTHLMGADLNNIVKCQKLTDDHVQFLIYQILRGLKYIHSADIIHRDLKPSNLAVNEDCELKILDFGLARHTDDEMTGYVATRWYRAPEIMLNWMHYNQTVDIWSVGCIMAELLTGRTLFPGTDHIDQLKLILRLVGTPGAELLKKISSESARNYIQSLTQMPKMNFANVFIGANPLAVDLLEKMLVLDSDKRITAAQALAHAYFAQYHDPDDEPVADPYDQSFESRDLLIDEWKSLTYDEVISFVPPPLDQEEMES

## Cardiolipin
Proteasome [1]
  Results: purified proteasome/lysate: Increases mainly

## CCCCCCCCCCCCOS(=O)(=O)[O-].[Na+] [SDS]
Proteasome [1]
  Results: purified proteasome/lysate: Increases all 3 proteasome

## CN(C)C(=O)C(CCN1CCC(O)(c2ccc(Cl)cc2)CC1)(c1ccccc1)c1ccccc1 [loperamide, Loperamide]
[2]
  screening hit (FL-1 log 2 ratio >1.00 and no exclusion criterion met): identified as hits

## CC(C)OC(=O)C(C)(C)Oc1ccc(C(=O)c2ccc(Cl)cc2)cc1 [fenofibrate, Fenofibrate]
[2]; [5]
  screening hit (FL-1 log 2 ratio >1.00 and no exclusion criterion met): identified as hits

## COc1ccc(CCN(C)CCCC(C#N)(c2ccc(OC)c(OC)c2)C(C)C)cc1OC (centres unmarked) [verapamil, Verapamil]
[2]
  screening hit (FL-1 log 2 ratio >1.00 and no exclusion criterion met): identified as hits in both

## CCCn1c(=O)c2[nH]c(C3CCCC3)nc2n(CCC)c1=O [DPCPX, 8-cyclopenthyl-1,3-dipropylxanthine]
[2]; 0.1, 0.5, 1.0 or 5.0 μM compound for 4, 16, 24 or 48 hours
  time dependence of proteasome activation (FL-1 log 2 ratio): both concentration and time dependent; also recorded: displayed an increase in activation over time
[2]; [5]
  screening hit (FL-1 log 2 ratio >1.00 and no exclusion criterion met): identified as hits

## CC(C)C[C@@H](C=O)NC(=O)[C@H](CC(C)C)NC(=O)[C@H](CC(C)C)NC(=O)OCc1ccccc1 [MG132] (Cbz-Leu-Leu-Leu-aldehyde)
MelJuSo wild type cells
  cytotoxicity: highly cytotoxic
[2]
  fluorescent probe signal compared to untreated cells: reduces the signal compared to untreated cells

## CCCCC/C=C\C/C=C\CCCCCCCC(=O)O [Linoleic acid]
Proteasome [1]
  Results: purified proteasome/lysate: Increases all 3 proteasome

## Lysophosphatidylinositol
Proteasome [1]
  Results: purified proteasome/lysate: Increases mainly

## CN(C)CCC[C@@]1(c2ccc(F)cc2)OCc2cc(C#N)ccc21 [escitalopram]
[2]; [5]
  screening hit (FL-1 log 2 ratio >1.00 and no exclusion criterion met): initially identified in the JHCCL screen

## Polyarginine
Proteasome [1]
  Results: purified proteasome/lysate: Increases mainly

## Ceramides
Proteasome [1]
  Results: purified proteasome/lysate: Increases mainly

## Polylysine
Proteasome [1]
  Results: purified proteasome/lysate: Increases mainly

## CN1C[C@H](CNC(=O)OCc2ccccc2)C[C@@H]2c3cccc4c3c(cn4C)C[C@H]21 [metergoline, Metergoline]
[2]; [5]
  screening hit (FL-1 log 2 ratio >1.00 and no exclusion criterion met): identified as hits

## Fc1ccc(-c2nc3n(c2-c2ccncc2)CCS3)cc1 [SKF86002]
p38α
  inhibition of p38α isoform: inhibits only p38α

## Cc1cc(C(=O)CN2CCCC2)c(C)n1-c1ccc(F)cc1 [USP14 inhibitor, IU1]
Proteasome [1]
  Results: purified proteasome/lysate: Increases all 3 proteasome
[2]; 5 μM, 16 hours, triplicate
  FL-1 log 2 score compared to the compounds identified in the screen: scores relatively low
Proteasome [3]
  Results: live cells: Increases all 3

## C#C[C@]1(O)CC[C@H]2C3CCC4=Cc5nc6nc7ccccc7n6cc5C[C@]4(C)C3CC[C@@]21C (some centres unmarked) [Win 62,577]
[4]
  probe signal after one hour of incubation, no washout: strong activation; also recorded: clear increase in signal
  probe signal after one hour of washout: still more than the untreated control but less when compared to the no washout
  probe signal after two hours of washout: disappeared
  timeframe of onset and termination of increasing proteasome activity: 1 to 2 h
[2]
  concentration dependence of proteasome activation (FL-1 signal): dose-dependent increase of the fluorescent signal
  screening hit (FL-1 log 2 ratio >1.00 and no exclusion criterion met): identified as hits
  time dependence of proteasome activation (FL-1 log 2 ratio): mild decrease after 48 hours of incubation

## CC#C[C@]1(O)CC[C@H]2[C@@H]3CCC4=CC(=O)CCC4=C3[C@@H](c3ccc(N(C)C)cc3)C[C@@]21C [mifepristone, Mifepristone]
[2]; [5]
  screening hit (FL-1 log 2 ratio >1.00 and no exclusion criterion met): identified as hits

## O=c1[nH]c2ccccc2n1C1CCN(CCCC(c2ccc(F)cc2)c2ccc(F)cc2)CC1 [pimozide, Pimozide]
[2]; [5]
  screening hit (FL-1 log 2 ratio >1.00 and no exclusion criterion met): identified as hits

## Medroxyprogesterone
[2]
  screening hit (FL-1 log 2 ratio >1.00 and no exclusion criterion met): initially identified in the JHCCL screen

## OCCN(CCO)c1nc(N2CCCCC2)c2nc(N(CCO)CCO)nc(N3CCCCC3)c2n1 [dipyrimadole, Dipyrimadole]
[2]; [5]
  screening hit (FL-1 log 2 ratio >1.00 and no exclusion criterion met): identified as hits in both

## Nc1ccc2cc3ccc(N)cc3nc2c1 [proflavine, Proflavine]
[2]; [5]
  screening hit (FL-1 log 2 ratio >1.00 and no exclusion criterion met): identified as hits

## COc1cccc(-c2cc(=O)c3ccccc3o2)c1N [PD98059]
[4]
  activation effect on the β2- and β5-subunits: most pronounced; also recorded: pronounced activation effect
[4]; listed as PD98052
  activation effect on the β2- and β5-subunits: seems to enhance the activity

## CC/C=C\C/C=C\C/C=C\CCCCCCCC(=O)O [alpha linolenic acid]
Proteasome [1]
  Results: purified proteasome/lysate: Increases all 3 proteasome

## Oc1ccc(-c2nc(-c3ccc(F)cc3)c(-c3ccncc3)[nH]2)cc1 [SB202190]
[4]
  activation effect on the β2- and β5-subunits: pronounced activation effect
[4]; listed as SB202150
  activation effect on the β2- and β5-subunits: most pronounced
p38α
  inhibition of p38α isoform: inhibits both the p38α and p38β-isoforms

## Methylbenzethonium
[2]; [5]
  screening hit (FL-1 log 2 ratio >1.00 and no exclusion criterion met): identified as hits

## CCCCCCCC/C=C\CCCCCCCC(=O)O [Oleic acid]
Proteasome [1]
  Results: purified proteasome/lysate: Increases all 3 proteasome

## CN1[C@@H]2CC[C@H]1C[C@@H](OC(c1ccccc1)c1ccccc1)C2 [benztropin]
[2]; [5]
  screening hit (FL-1 log 2 ratio >1.00 and no exclusion criterion met): initially identified in the JHCCL screen
